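Method: 48-hour compound exposure of cells in 96-well plates, five concentrations, linear interpolation of endpoints. Definition used: TGI = concentration required for complete inhibition of growth.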
Experiments:
Assay in all cases: NCI tumour cell line growth inhibition, 48 h
[1] = system: IGROV1 ovarian
[2] = system: NCI-H226 lung
[3] = system: SNB-19 CNS
[4] = system: SR leukemia
[5] = system: CCRF-CEM leukemia
[6] = system: CAKI-1 renal
[7] = system: SF-268 CNS
[8] = system: RPMI-8226 leukemia
[9] = system: RXF 393 renal
[10] = system: DU-145 prostate
[11] = system: PC-3 prostate
[12] = system: ACHN renal
[13] = system: HS 578T breast
[14] = system: HCC-2998 colon
[15] = system: UO-31 renal
[16] = system: OVCAR-3 ovarian
[17] = system: SF-295 CNS
[18] = system: SK-MEL-5 melanoma
[19] = system: MDA-MB-435
[20] = system: NCI/ADR-RES ovarian
[21] = system: SK-OV-3 ovarian
[22] = system: EKVX NSCLC
[23] = system: T-47D breast
[24] = system: M14 melanoma
[25] = system: OVCAR-4 ovarian
[26] = system: SNB-75 CNS
[27] = system: OVCAR-8 ovarian
[28] = system: UACC-62 melanoma
[29] = system: SK-MEL-28 melanoma
[30] = system: U251 CNS
[31] = system: HCT-15 colon
[32] = system: HOP-92 NSCLC
[33] = system: SK-MEL-2 melanoma
[34] = system: NCI-H23 lung
[35] = system: OVCAR-5 ovarian
[36] = system: KM12 colon
[37] = system: UACC-257 melanoma
[38] = system: SF-539 CNS
[39] = system: HT29 colon
[40] = system: MCF7 breast
[41] = system: 786-0 renal
[42] = system: MDA-MB-231 breast
[43] = system: COLO 205 colon
[44] = system: SW-620 colon
[45] = system: A498 renal
[46] = system: SN12C renal
[47] = system: MOLT-4 leukemia
[48] = system: HOP-62 NSCLC
[49] = system: TK-10 renal
[50] = system: HCT-116 colon
[51] = system: NCI-H522 lung
[52] = system: K-562 leukemia
[53] = system: A549 NSCLC
[54] = system: BT-549 breast

In the case of `C=C1CCC[C@@H](C)C(O)[C@@H]2OC(=O)C(=C)[C@@H]2C[C@@H](OC(C)=O)[C@@]2(C)CC[C@@H]1O2` (some centres undefined), the TGI [1] was 15.4 µM, the TGI [2] was 16 µM and the TGI [3] was > 50 µM. For the same compound, the TGI [4] was 9.91 µM, the TGI [5] was 6.8 µM and the TGI [6] was 13.6 µM. The TGI [7] was 15.7 µM, the TGI [8] was > 50 µM and the TGI [9] was 12.9 µM. It also gave a TGI [10] of 14.3 µM, a TGI [11] of 16.2 µM and a TGI [12] of 13.4 µM. The TGI [13] was 29.4 µM, the TGI [14] was 14.9 µM and the TGI [15] was 15.3 µM. It also gave a TGI [16] of 11.5 µM, a TGI [17] of 38.5 µM and a TGI [18] of 13.7 µM. The TGI [19] was 15.1 µM, the TGI [20] was 19.3 µM and the TGI [21] was 40.8 µM. For the same compound, the TGI [22] was 15.1 µM, the TGI [23] was 19.2 µM and the TGI [24] was 13.6 µM. It also gave a TGI [25] of 36.7 µM, a TGI [26] of 10.1 µM and a TGI [27] of 16.4 µM. The TGI [28] was 11.7 µM, the TGI [29] was 15.1 µM and the TGI [30] was 17.8 µM. The TGI [31] was 10.6 µM, the TGI [32] was 15 µM and the TGI [33] was 15.8 µM. The TGI [34] was 15.2 µM, the TGI [35] was 16.1 µM and the TGI [36] was 14.6 µM. It also gave a TGI [37] of 15.2 µM, a TGI [38] of 15.3 µM and a TGI [39] of 15.3 µM. For the same compound, the TGI [40] was 11.6 µM, the TGI [41] was 20.1 µM and the TGI [42] was 16.3 µM. The TGI [43] was 13.4 µM, the TGI [44] was 16.7 µM and the TGI [45] was 19.2 µM. For the same compound, the TGI [46] was 16 µM, the TGI [47] was 15.4 µM and the TGI [48] was 18.7 µM. For the same compound, the TGI [49] was 14.8 µM, the TGI [50] was 13.8 µM and the TGI [51] was 4.93 µM. The TGI [52] was 12.1 µM, the TGI [53] was > 50 µM and the TGI [54] was 14.4 µM.
